Source: the NIST ThermoML archive (doi:10.1021/je400055v)
± gives the expanded uncertainty stated by the source.

Details: Liquid, Vibrating tube method

Cc1cccc(O)c1 [3-methylphenol]
Details | mass density [kg/m3]
313.22 K, 1001 kPa | 1019.1 ± 0.3
313.22 K, 2012 kPa | 1019.8 ± 0.3
313.22 K, 3024 kPa | 1020.3 ± 0.3
313.22 K, 4007 kPa | 1020.9 ± 0.3
313.22 K, 4992 kPa | 1021.4 ± 0.3
313.22 K, 6027 kPa | 1022 ± 0.3
313.22 K, 7013 kPa | 1022.6 ± 0.3
313.22 K, 8000 kPa | 1023.1 ± 0.3
313.22 K, 9008 kPa | 1023.7 ± 0.3
313.22 K, 10014 kPa | 1024.3 ± 0.3
313.22 K, 11015 kPa | 1024.8 ± 0.3
313.22 K, 12040 kPa | 1025.4 ± 0.3
313.22 K, 13022 kPa | 1026 ± 0.3
313.22 K, 14023 kPa | 1026.4 ± 0.3
313.22 K, 15002 kPa | 1026.9 ± 0.3
313.22 K, 16009 kPa | 1027.5 ± 0.3
313.22 K, 17020 kPa | 1028 ± 0.3
313.22 K, 18021 kPa | 1028.5 ± 0.3
313.22 K, 19016 kPa | 1029 ± 0.3
313.22 K, 20026 kPa | 1029.6 ± 0.3
313.22 K, 21024 kPa | 1030.1 ± 0.3
313.22 K, 22026 kPa | 1030.7 ± 0.3
313.22 K, 23030 kPa | 1031.1 ± 0.3
313.22 K, 24017 kPa | 1031.6 ± 0.3
313.22 K, 25019 kPa | 1032.2 ± 0.3
322.9 K, 1014 kPa | 1011.2 ± 0.3
322.9 K, 2041 kPa | 1011.8 ± 0.3
322.9 K, 3002 kPa | 1012.4 ± 0.3
322.9 K, 4014 kPa | 1013 ± 0.3
322.9 K, 5012 kPa | 1013.6 ± 0.3
322.9 K, 6022 kPa | 1014.2 ± 0.3
322.9 K, 7020 kPa | 1014.7 ± 0.3
322.9 K, 8018 kPa | 1015.3 ± 0.3
322.9 K, 9020 kPa | 1015.9 ± 0.3
322.9 K, 10005 kPa | 1016.4 ± 0.3
322.9 K, 11018 kPa | 1017 ± 0.3
322.9 K, 12019 kPa | 1017.6 ± 0.3
322.9 K, 13017 kPa | 1018.2 ± 0.3
322.9 K, 14010 kPa | 1018.7 ± 0.3
322.9 K, 15022 kPa | 1019.3 ± 0.3
322.9 K, 16000 kPa | 1019.8 ± 0.3
322.9 K, 17011 kPa | 1020.4 ± 0.3
322.9 K, 18018 kPa | 1020.9 ± 0.3
322.9 K, 19018 kPa | 1021.4 ± 0.3
322.9 K, 20009 kPa | 1022 ± 0.3
322.9 K, 21019 kPa | 1022.6 ± 0.3
322.9 K, 22019 kPa | 1023.1 ± 0.3
322.9 K, 23006 kPa | 1023.6 ± 0.3
322.9 K, 24012 kPa | 1024.1 ± 0.3
322.9 K, 25019 kPa | 1024.7 ± 0.3
332.61 K, 1018 kPa | 1003.3 ± 0.3
332.61 K, 2014 kPa | 1004 ± 0.3
332.61 K, 3003 kPa | 1004.5 ± 0.3
332.61 K, 4030 kPa | 1005.2 ± 0.3
332.61 K, 5000 kPa | 1005.8 ± 0.3
332.61 K, 6022 kPa | 1006.4 ± 0.3
332.61 K, 7020 kPa | 1006.9 ± 0.3
332.61 K, 8020 kPa | 1007.5 ± 0.3
332.61 K, 9003 kPa | 1008.1 ± 0.3
332.61 K, 10014 kPa | 1008.7 ± 0.3
332.61 K, 11012 kPa | 1009.3 ± 0.3
332.61 K, 12000 kPa | 1009.9 ± 0.3
332.61 K, 13000 kPa | 1010.4 ± 0.3
332.61 K, 14028 kPa | 1011 ± 0.3
332.61 K, 15028 kPa | 1011.6 ± 0.3
332.61 K, 16023 kPa | 1012.2 ± 0.3
332.61 K, 17000 kPa | 1012.7 ± 0.3
332.61 K, 18008 kPa | 1013.3 ± 0.3
332.61 K, 19000 kPa | 1013.9 ± 0.3
332.61 K, 20001 kPa | 1014.4 ± 0.3
332.61 K, 21013 kPa | 1014.9 ± 0.3
332.61 K, 22010 kPa | 1015.5 ± 0.3
332.61 K, 23007 kPa | 1016 ± 0.3
